Laboratory results from article PMC4876444, “Two-Photon Enzymatic Probes Visualizing Sub-cellular/Deep-brain Caspase Activities in Neurodegenerative Models” (Scientific Reports, 2016).

Assays:
[1] = system: NIH/3T3, BV2 and HeLa cells; assay: XTT cytotoxicity assay; type: cell-based, mouse, human; settings: XTT assay, 12, 30, 60, 120 μM, 24 h
Protocol: Supplementary Figure 4. Cytotoxicity of two-photon enzymatic probes (12, 30, 60, 120 μM) in mammalian cells (NIH/3T3, BV2 and HeLa) after incubation for 24 h, as determined by XTT assay. […]
Detection of caspase activities in mammalian cells and tissues
Cell culture. The mouse embryonic fibroblast cell line (NIH/3T3), mouse microglial cell line (BV2) and human epithelial carcinoma cell line (HeLa) used in our experiments were cultured in Dulbecco’s Modified Eagle's Medium (DMEM) supplemented with 10% (for NIH/3T3 and HeLa) or 5% (for BV2) fetal bovine serum (FBS), 100.0 mg/L streptomycin and 100 IU/mL penicillin in a humidified atmosphere of 5% CO2 at 37 °C.
XTT assay. The cytotoxicity of our probes was determined by using the XTT colorimetric cell proliferation kit (Roche) following manufacturer’s guidelines. Briefly, NIH/3T3, BV2 and HeLa cells were seeded in 20~30% confluency (since they will reach >50% confluency within 24 h) into 96-well plates and incubated overnight before the addition of probes with concentrations of 12 μM, 30 μM, 60 μM and 120 μM, respectively. Probes were applied from DMSO stocks whereby DMSO never exceeded 1% in the final solution. The same volume of DMSO was used as a negative control; and the same volume of STS (200 nM) was used as a positive control. After a total treatment time of 24 h, proliferation was assayed using the XTT assay (Supplementary Fig. 4). […]

[2] = system: caspase-3/-7-like activities in brain slices; assay: TPFM of caspase-3 activation in brain slices of ethanol-intoxicated mouse; settings: 200-μm-thick brain sections of ethanol-intoxicated 7-day-old C57BL/6 mice, probe 120 μM, 3 h, 37 °C, Z-axis scanning TPFM
Protocol: Figure 4 Imaging endogenous caspase activities in deep tissues. (a) TPFM of caspase-3 activation in brain slices of ethanol-intoxicated 7-day-old C57BL/6 mouse using C3RA (120 μM, 3 h). Top: 3D images of the mouse brain slice taken along the Z-axis from 0 to 160 μm at 10x magnification. Bottom: images taken at a depth of 120 μm at 40x magnification. […]: control slices (saline-treated); panels 2/6/4/8: treated with caspase-3/7 inhibitor I (200 μM, 3 h). Scale bar = 50 μm. (b) RFU readings extracted from (a) (FTPFM, blue bars) versus those from in vitro enzymatic assays using lysates from the same brain slices (RFU, orange bars). The signal from saline controls was set as “0” and that from ethanol-treated samples was set as “1” in RFU quantification. Due to the base-level active caspase-3 in the saline controls, negative readings were shown with inhibitor-treated samples. (c) WB analysis of caspase-3/-1/-8 activation in lysates of the same mouse brain slices shown in (a). (d) Normalized RFU readings from in vitro enzymatic assays using brain lysates (300 μg) of saline/ethanol treated mice after incubation with C1RB/C3RA/C8RA (6 μM) for 1 h at 37 °C.
All two-photon images were taken on a Leica TCS SP5X Confocal Microscope System. […]

Compound: CC(=O)N[C@@H](CC(=O)O)C(=O)N[C@@H](CCC(=O)O)C(=O)N[C@H](C(=O)N[C@@H](CC(=O)O)C(=O)Nc1ccc2cc(C(C)=O)ccc2c1)C(C)C [C3RA, Ac-DEVD-AAN]
- cytotoxicity [1]: minimally cytotoxic
- tissue depth of detection of caspase-3/-7-like activities [2]: ≤ 160 μm
